Experiment: xn = mol fraction of the nth substance listed
Details: 96.7 kPa

c1ccncc1 + CC(=O)[O-].CC[n+]1ccn(C)c1
x2 = 0
Details | viscosity [mPa·s]
303.15 K | 0.843
313.15 K | 0.741
323.15 K | 0.658
333.15 K | 0.59
343.15 K | 0.533
353.15 K | 0.485

CC(=O)[O-].CC[n+]1ccn(C)c1 + c1ccncc1
viscosity [mPa·s]
Details | x1 = 0.166 | x1 = 0.318 | x1 = 0.411 | x1 = 0.52 | x1 = 0.649 | x1 = 0.806 | x1 = 0.898 | x1 = 1
303.15 K | 2.54 | 5.96 | – | 15.7 | 27.5 | 51 | 72.6 | 103.2
308.15 K | – | 5.29 | 8.29 | – | 22.7 | – | – | 76.1
313.15 K | 2.12 | 4.72 | 7.27 | 11.55 | 19 | 33.1 | 44.7 | 59.6
318.15 K | 1.95 | 4.22 | 6.42 | 9.99 | 16.09 | 27 | 36 | 47.4
323.15 K | 1.797 | 3.82 | 5.71 | – | 13.77 | 22.7 | – | 38.4
328.15 K | 1.671 | – | 5.11 | 7.68 | 11.88 | – | 24.5 | 31.5
333.15 K | 1.552 | – | 4.6 | 6.82 | – | 16.33 | 20.6 | –
338.15 K | 1.453 | – | 4.16 | 6.09 | 9.11 | 14.04 | 17.63 | 22
343.15 K | – | 2.65 | – | 5.47 | – | 12.35 | 15.11 | –
348.15 K | 1.278 | 2.45 | 3.46 | 4.96 | 7.18 | 10.77 | 13.26 | 16.25
353.15 K | 1.203 | – | 3.18 | 4.48 | 6.45 | 9.52 | 11.59 | 14.03
